Measured values from the supplement of paper PMC10307832.

Assays:
Experiment in all cases: relative viability (nuclei count vs DMSO), 5 days (fraction); higher = more cells survive
AGI-6780 + Alpelisib = compound: O=C(Nc1cccc(C(F)(F)F)c1)Nc1cc(S(=O)(=O)NC2CC2)ccc1-c1ccsc1 [AGI-6780] + Cc1nc(NC(=O)N2CCC[C@H]2C(N)=O)sc1-c1ccnc(C(C)(C)C(F)(F)F)c1 [Alpelisib] (partner 2 µM)
How it was run: (§1)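 For relative viability, nuclei counts in treated wells were divided by those in vehicle wells. Lung cancer cell lines had been pin-tool dosed in 1536-well plates the day after seeding and cultured for 5 days, then fixed and stained in one step (final 0.05% Triton X-100, 1% formaldehyde, 1 ug/ml Hoechst) and imaged at 4×. Doses were one drug alone or a fixed anchor-drug dose plus five library-drug doses (not always all listed) in √10 steps, and values are duplicate-plate medians.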

AGI-6780 + Luminespib = compound: O=C(Nc1cccc(C(F)(F)F)c1)Nc1cc(S(=O)(=O)NC2CC2)ccc1-c1ccsc1 [AGI-6780] + CCNC(=O)c1noc(-c2cc(C(C)C)c(O)cc2O)c1-c1ccc(CN2CCOCC2)cc1 [Luminespib] (partner 0.01 µM)
How it was run: as §1

AGI-6780 + Tozasertib = compound: O=C(Nc1cccc(C(F)(F)F)c1)Nc1cc(S(=O)(=O)NC2CC2)ccc1-c1ccsc1 [AGI-6780] + Cc1cc(Nc2cc(N3CCN(C)CC3)nc(Sc3ccc(NC(=O)C4CC4)cc3)n2)n[nH]1 [Tozasertib] (partner 0.1 µM)
How it was run: as §1

AGI-6780 + Dasatinib = compound: O=C(Nc1cccc(C(F)(F)F)c1)Nc1cc(S(=O)(=O)NC2CC2)ccc1-c1ccsc1 [AGI-6780] + Cc1nc(Nc2ncc(C(=O)Nc3c(C)cccc3Cl)s2)cc(N2CCN(CCO)CC2)n1 [Dasatinib] (partner 0.075 µM)
How it was run: as §1

Cell Line	relative viability (AGI-6780 + Alpelisib; first compound 0.08 µM)	relative viability (AGI-6780 + Alpelisib; first compound 0.253 µM)	relative viability (AGI-6780 + Alpelisib; first compound 0.8 µM)	relative viability (AGI-6780 + Alpelisib; first compound 2.53 µM)	relative viability (AGI-6780 + Alpelisib; first compound 8 µM)	relative viability (AGI-6780 + Luminespib; first compound 0.08 µM)	relative viability (AGI-6780 + Luminespib; first compound 0.253 µM)	relative viability (AGI-6780 + Luminespib; first compound 0.8 µM)	relative viability (AGI-6780 + Luminespib; first compound 2.53 µM)	relative viability (AGI-6780 + Luminespib; first compound 8 µM)	relative viability (AGI-6780 + Tozasertib; first compound 0.08 µM)	relative viability (AGI-6780 + Tozasertib; first compound 0.253 µM)	relative viability (AGI-6780 + Tozasertib; first compound 0.8 µM)	relative viability (AGI-6780 + Tozasertib; first compound 2.53 µM)	relative viability (AGI-6780 + Tozasertib; first compound 8 µM)	relative viability (AGI-6780 + Dasatinib; first compound 0.08 µM)	relative viability (AGI-6780 + Dasatinib; first compound 0.253 µM)	relative viability (AGI-6780 + Dasatinib; first compound 0.8 µM)	relative viability (AGI-6780 + Dasatinib; first compound 2.53 µM)	relative viability (AGI-6780 + Dasatinib; first compound 8 µM)
NCI-H322M	0.902	0.917	0.88	0.906	0.827	0.889	0.901	0.912	0.744	0.814	0.517	0.508	0.493	0.425	0.515	0.253	0.259	0.242	0.237	0.261
NCI-H358	0.896	0.906	0.835	0.63	0.721	0.37	0.255	0.424	0.204	0.439	0.11	0.108	0.112	0.105	0.11	0.184	0.175	0.17	0.151	0.197
NCI-H441	0.885	0.783	0.713	0.382	0.646	0.346	0.333	0.41	0.302	0.361	0.608	0.733	0.474	0.415	0.599	0.669	0.639	0.597	0.548	0.472
NCI-H460	0.536	0.458	0.514	0.327	0.568	0.0337	0.0309	0.0296	0.0322	0.0345	0.537	0.453	0.491	0.349	0.176	0.495	0.583	0.468	0.444	0.541
NCI-H520	1.05	1.08	0.959	0.732	0.922	0.23	0.255	0.234	0.178	0.231	0.486	0.441	0.426	0.327	0.446	0.197	0.185	0.216	0.177	0.194
NCI-H596	0.6	0.501	0.455	0.427	0.516	1	0.995	0.982		1.09	0.839	0.898	0.725		0.983	0.582	0.583	0.624		0.665
NCI-H647	1.19	1.16	1.24	1.06	1.13	0.0935	0.181	0.12	0.103	0.118	0.299	0.302	0.37	0.181	0.281	0.186	0.202	0.23	0.175	0.448
NCI-H650	1.15	0.956	1.15	0.855	1.26	0.673	0.874	0.865	0.793	0.946	0.749	0.747	0.72	0.642	0.7	0.459	0.528	0.443	0.399	0.426
